Source: US11634423B2, “Substituted pyrazolo[1,5-a]pyrimidines as inhibitors of interferon signaling” (Eli Lilly and Company, priority 2020, dated 2023)

Tests used:
[1] = tested on: IFNα signaling through pSTAT1 in TF1 cells; assay: Inhibition of IFNα signaling through pSTAT1 in TF1 cells; format: cell-based; conditions: Homo sapiens, TF-1, 1 hour preincubation, 10 ng/mL IFNα2 for 20 minutes, p-Stat1 (Tyr701) AlphaLISA, geometric mean (SEM), read-out: IFNα inh IC50
Protocol: TF1 cells (ATCC, CL-2003) are grown in RPMI 1640 (GIBCO) supplemented with 10% dialyzed FBS, 0.1 mg/mL Ampicillin and 2 ng/mL granulocyte macrophage colony stimulating factor. TF1 cells (100 K per well) are seeded in a 96-well poly-D-lysine coated plates in serum-free DMEM and incubated overnight at 37° C. under 5% CO2. Example 1 is serially diluted in DMSO, added to the cells, and incubated at 37° C. for 1 hour. Cells are then stimulated with 10 ng/mL IFNα2 at 37° C. for 20 minutes. After removing the medium, the cells are lysed in buffer containing Halt protease and phosphatase inhibitor cocktail (Thermo Scientific #78441) at ambient temperature for 30 minutes. The amount of p-Stat1 (Tyr701) is quantified as light emission at 615 nm using the AlphaLISA SureFire Ultra p-Stat1 (Tyr701) assay kit (Perkin Elmer #ALSU-PST1-A50K) following the vendor's recommended protocol. Percent inhibition at each inhibitor concentration is calculated and fit to the four parameter nonlinear logistic equation using Genedata Screener© to give an IC50 for the compounds tested expressed as GeoMetric means with the standard error of the mean (SEM).

[2] = target: T1, pseudokinase domain (JH2) of human TYK2 (Homo sapiens, UniProt P29597); assay: TYK2-JH2 Tracer Binding Assay; conditions: TR-FRET tracer displacement, His-tagged TYK2-JH2 0.200 nM, Tracer 2.00 nM, 30 minutes
T1 construct: The pseudokinase domain (JH2) of human JAK; made in house
T1 sequence (P29597 589-875 limits assumed): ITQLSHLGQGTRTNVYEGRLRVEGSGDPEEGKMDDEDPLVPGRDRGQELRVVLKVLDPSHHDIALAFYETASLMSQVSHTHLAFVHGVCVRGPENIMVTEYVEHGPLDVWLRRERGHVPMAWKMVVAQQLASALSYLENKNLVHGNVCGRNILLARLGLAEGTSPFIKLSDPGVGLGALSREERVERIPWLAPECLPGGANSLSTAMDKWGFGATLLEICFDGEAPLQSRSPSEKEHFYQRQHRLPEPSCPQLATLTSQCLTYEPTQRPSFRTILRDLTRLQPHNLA
From the text: The pseudokinase domain (JH2) of human JAK (Janus family of cytoplasmic tyrosine kinases) family tyrosine kinase 2 (TYK2) (Genbank NP_003322) with an N-terminal His6 tag is expressed in baculovirus and purified by HisPur Ni-NTA affinity and Superdex 200 size-exclusion chromatography. The compound prepared in Preparation 17, a conjugate of Alexa Fluor 647 dye (Thermo Fisher Scientific) and a suitable TYK2 JH2 binder, is referred to herein as “the Tracer”. A 3 fold, 10 point serial dilution of compound (Examples 1, 2, and 3) are prepared in 100% DMSO and 50 nL/well transferred to a Proxiplate-384F white plate (PerkinElmer 6008280) using acoustic liquid handling. Control wells used to determine percent inhibition contained 100% DMSO (50 nL) and either assay buffer containing the Tracer (2.00 nM final concentration) (min, low FRET) or diluted TYK2-JH2 enzyme (0.200 nM final concentration) and the Tracer (2.00 nM final concentration) (max, high FRET).
5.0 μL of His-tagged TYK2-JH2 (0.402 nM) and LanthaScreen Eu-anti-HIS Ab (4.02 nM, LifeTech, PV5597) in assay buffer (50 mM HEPES […], 10 mM magnesium chloride, 1 mM ethylene glycol-bis(β-aminoethyl ether)-N,N,N′,N′-tetraacetic acid, 0.01% Brij-35 and Milli-Q) water is added to the Proxiplate-384 plate containing the 50 nL of diluted compound and control wells. 5.0 μL of the Tracer (2.00 nM final concentration) in assay buffer is added to the plate and allowed to equilibrate for 30 minutes at ambient temperature. After 30 minutes, the plate is counted on a PerkinElmer Envision with the following settings: Excitation (340 nm), Tracer Emission (665 nm) and LanthaScreen Eu-anti-His Antibody Emission (615 nm). The ratio of Tracer Emission (665 nm) over LanthaScreen Eu-anti-His Antibody Emission (615 nm) is determined. Percent inhibition of ratio at each inhibitor concentration is calculated using the max and min control wells and fit to the four parameter nonlinear logistic equation in GeneData Screener® to give an IC50 for the compounds tested.

[3] = tested on: IL-23 signaling (STAT3 phosphorylation) in Kit225 cells; assay: IL23 pSTAT3 AlphaLISA Assay; format: cell-based; conditions: 0.5 h, 1 hour preincubation, IL-23 25 ng/mL for 30 minutes, in presence of IL-2, relative IC50, geometric mean (SEM), read-out: IL-23 inh IC50
Protocol: IL-2-dependent Kit225 cells (University of Texas MD Anderson Cancer Center) expressing endogenous IL-23 receptors are stably transduced with the Lenti STAT3 Reporter linked to firefly luciferase (SABiosciences CLS-6028L). These cells are used to monitor TYK2 activity by quantifying gene expression caused by STAT3 phosporylation following induction by IL-23 in the presence of IL-2 using AlphaLISA technology (TGR Biosciences ALSU-TST3-A50K). The cells are grown in RPMI 1640 (Gibco 22400) supplemented with 10% FBS (Invitrogen 10082), 1× Pen/Strep (Gibco 15140-122), 200 ng/ml Puromycin (Sigma P9620), and fresh 10 ng/ml recombinant human IL-2 (R&D Systems 202-IL-50).
For assay preparation, cells are dispensed into Biocoat black poly-d-lysine coated clear bottom 384-well plates (Becton Dickinson Bio-Coat 35-4640) in DMEM (Sigma D5796) at 300,000 cells/well and allowed to incubate overnight at 37° C. Compounds solubilized in DMSO are serially diluted 1:3 to produce a 10-point concentration response curve (final DMSO=0.1%). Cells are pre-incubated with Example 1 for 1 hour at 37° C., then stimulated with IL-23 (25 ng/mL final) for 30 minutes. After centrifugation at 2000 rpm for 10 minutes, cell pellets are lysed with a mixture of 1:1 lysis buffer (TGR Biosciences) and Halt Protease & Phosphatase inhibitor cocktail (Thermo Scientific 1861281) for 30 minutes. The AlphaLISA reaction is performed following the vendor's recommended protocol, and the luciferase levels are measured using an Envision plate reader (Perkin Elmer). The relative IC50 is calculated using a 4-parameter nonlinear logistic equation (GeneData Screener 13.0.5) to give an IC50 for the compounds tested expressed as GeoMetric means with the standard error of the mean (SEM).

In the case of `CNc1cc(Nc2cccn(-c3ccc(C)cn3)c2=O)nc2c(C(=O)N[C@@H]3CCN(C)C3=O)cnn12` [Example 1, 7-(Methylamino)-N-[(3R)-1-methyl-2-oxo-pyrrolidin-3-yl]-5-[[1-(5-methyl-2-pyridyl)-2-oxo-3-pyridyl]amino]pyrazolo[1,5-a]pyrimidine-3-carboxamide], the IC50 [1] is reported as 112 nM, the IC50 [2] is reported as under 0.254 nM and the IC50 [3] is reported as 65 nM.
`CNc1cc(Nc2cccn(-c3cccc(C)n3)c2=O)nc2c(C(=O)N[C@@H]3CCN(C)C3=O)cnn12` [Example 2, 7-(Methylamino)-N-[(3R)-1-methyl-2-oxo-pyrrolidin-3-yl]-5-[[1-(6-methyl-2-pyridyl)-2-oxo-3-pyridyl]amino]pyrazolo[1,5-a]pyrimidine-3-carboxamide] gave an IC50 [1] of 206 nM, an IC50 [2] of under 0.254 nM and an IC50 [3] of 101 nM.
`CNc1cc(Nc2cccn(-c3ccccn3)c2=O)nc2c(C(=O)N[C@@H]3CCN(C)C3=O)cnn12` [Example 3, 7-(Methylamino)-N-[(3R)-1-methyl-2-oxo-pyrrolidin-3-yl]-5-[[2-oxo-1-(2-pyridyl)-3-pyridyl]amino]pyrazolo[1,5-a]pyrimidine-3-carboxamide] gave an IC50 [1] of 106 nM, an IC50 [2] of under 0.254 nM and an IC50 [3] of 101 nM.
